Experimental data reported in patent US20250115634A1, “LIGAND, METHOD FOR PREPARING SAME, AND USE THEREOF” (priority 2022, published 2025).

Assays:
ASGPR receptor [1] = molecular target: T1, ASGPR receptor (Mus musculus, UniProt P24721+P34927); test: Binding of Cy5-labelled ligands to ASGPR on primary mouse liver cells (Kd); details: C57 mouse primary liver cells, incubated 37° C. in the dark for 30 min, trypsin to remove surface fluorescence
T1 construct: C57 mouse primary liver cells were isolated; endogenous in cells; host or cells: C57 mouse primary liver cells
T1 sequence (P34927 1-284): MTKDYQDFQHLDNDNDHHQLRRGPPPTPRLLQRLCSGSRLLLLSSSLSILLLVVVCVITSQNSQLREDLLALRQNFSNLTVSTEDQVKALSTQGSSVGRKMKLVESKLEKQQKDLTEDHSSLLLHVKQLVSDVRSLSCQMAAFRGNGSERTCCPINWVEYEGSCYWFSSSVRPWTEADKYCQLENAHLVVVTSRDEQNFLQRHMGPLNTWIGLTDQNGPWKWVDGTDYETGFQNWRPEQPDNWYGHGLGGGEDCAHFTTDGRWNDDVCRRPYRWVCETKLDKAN
T1 sequence (P24721 1-301): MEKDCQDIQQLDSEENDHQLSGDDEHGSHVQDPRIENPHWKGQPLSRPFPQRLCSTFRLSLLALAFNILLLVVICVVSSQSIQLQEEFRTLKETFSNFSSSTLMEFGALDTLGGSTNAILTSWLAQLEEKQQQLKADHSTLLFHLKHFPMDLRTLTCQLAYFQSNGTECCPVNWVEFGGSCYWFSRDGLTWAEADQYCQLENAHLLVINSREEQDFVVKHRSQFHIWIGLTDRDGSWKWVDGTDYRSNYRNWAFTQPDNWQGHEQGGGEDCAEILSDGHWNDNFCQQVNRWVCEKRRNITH
Experimental: (§1) The binding rate of the ligand of the present disclosure to the ASGPR receptor of liver cancer cells was tested, with the ligand with hepatocellular ASGPR-targeting property, loaded in Inclisiran, a small interfering nucleic acid drug marketed by Alnylam, as a positive control (PC).
The ligand-receptor dissociation constant (Kd, which is the drug concentration required for half of the maximum effect, i.e. 50% of the receptors are occupied) was used as a measure of ligand-receptor binding capacity; and the lower the Kd value, the higher the binding capacity.
C57 mouse primary liver cells were isolated, and the cells were in a good state, had viability of 92%, and were at a density of 2×10^5 cells/400 μL.
The test compounds were dissolved with PBS and then diluted with complete medium for primary liver cells to various concentration gradients.
The cells was added with 100 μL of the test compound solution prepared according to the set concentration gradients (the test compounds was first prepared with PBS into a stock solution, which was then diluted to the set concentration gradients with complete medium) and incubated at 37° C. in the dark for 30 min.
After incubation, the cells were washed once with 500 μL of PBS.
The cells were added with typsin to remove fluorescence on the cell surface.
The cells were washed again with 500 μL of PBS and detected on machine.

ASGPR receptor [2] = molecular target: T2, ASGPR receptor (Homo sapiens, UniProt P07306+P07307); test: Binding of Cy5-labelled ligands to ASGPR on HepG2 cell line (Kd); details: HepG2 cells, incubated at room temperature in the dark for 30 min
T2 construct: HepG2 cells grown to confluence of greater than 80%; endogenous in cells; host or cells: HepG2
T2 sequence (P07306 1-291): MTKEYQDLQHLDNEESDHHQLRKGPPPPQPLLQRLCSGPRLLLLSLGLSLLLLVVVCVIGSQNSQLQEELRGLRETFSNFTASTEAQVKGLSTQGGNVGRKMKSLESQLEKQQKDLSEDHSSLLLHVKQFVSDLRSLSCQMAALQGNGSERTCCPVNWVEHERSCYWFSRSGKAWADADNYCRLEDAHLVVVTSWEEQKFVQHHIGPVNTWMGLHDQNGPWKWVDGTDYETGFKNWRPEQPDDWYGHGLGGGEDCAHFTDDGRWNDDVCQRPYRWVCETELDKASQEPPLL
T2 sequence (P07307 1-311): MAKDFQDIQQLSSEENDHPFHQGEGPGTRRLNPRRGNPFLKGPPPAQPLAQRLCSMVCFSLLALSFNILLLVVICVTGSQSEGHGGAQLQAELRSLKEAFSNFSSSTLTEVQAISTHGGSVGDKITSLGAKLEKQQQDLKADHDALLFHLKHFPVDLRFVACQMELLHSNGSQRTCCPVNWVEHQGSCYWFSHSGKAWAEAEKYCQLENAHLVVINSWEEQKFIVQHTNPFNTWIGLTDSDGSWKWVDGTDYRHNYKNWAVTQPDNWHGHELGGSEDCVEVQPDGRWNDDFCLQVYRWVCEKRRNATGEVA
Experimental: as §1
The ligand-receptor dissociation constant (Kd, which is the drug concentration required for half of the maximum effect, i.e. 50% of the receptors are occupied) was used as a measure of ligand-receptor binding capacity, and the lower the Kd value, the higher the binding capacity.
• 1. HepG2 cells grown to confluence of greater than 80% and in a good state were digested, centrifuged and counted. • 2. The test compounds were diluted with PBS to various concentration gradients. • 3. The cells were washed once with PBS, added with 100 μL of the prepared compounds, and incubated at room temperature in the dark for 30 min. • 4. After incubation, the cells were washed twice with 1 mL of PBS and detected on machine.

SMILES: CC[N+]1=C(/C=C/C=C/C=C2/c3ccccc3N(CCCCCC(=O)NCCNC(=O)CCCCCCCCCCCNC(COCCC(=O)NCCCNC(=O)CCCCOC3OC(CO)C(O)C(O)C3NC(C)=O)(COCCC(=O)NCCCNC(=O)CCCCOC3OC(CO)C(O)C(O)C3NC(C)=O)COCCC(=O)NCCCNC(=O)CCCCOC3OC(CO)C(O)C(O)C3NC(C)=O)C2(C)C)C(C)(C)c2ccccc21 (centres unmarked) [PC-Cy5, reference compound]
- Kd (ASGPR receptor [1]): 0.408 nM
- Kd (ASGPR receptor [2]): 40.2 nM

SMILES: CC[N+]1=C(/C=C/C=C/C=C2/c3ccccc3N(CCCCCC(=O)NCCNC(=O)CCCCCCCCCCC(=O)N3C[C@H](OCC(=O)NCCOCCOC4OC(CO)C(O)C(O)C4NC(C)=O)C[C@H]3C(=O)NC(C)(COCCC(=O)NCCOCCOC3OC(CO)C(O)C(O)C3NC(C)=O)COCCC(=O)NCCOCCOC3OC(CO)C(O)C(O)C3NC(C)=O)C2(C)C)C(C)(C)c2ccccc21 (some centres unmarked) [TC10A-Cy5]
- Kd (ASGPR receptor [1]): 0.867 nM

SMILES: CC[N+]1=C(/C=C/C=C/C=C2/c3ccccc3N(CCCCCC(=O)NCCCC(=O)CCCCCCCCCCC(=O)N3C[C@H](OCC(=O)NCCOCCOCCOC4OC(CO)C(O)C(O)C4NC(C)=O)C[C@H]3C(=O)NC(COCCC(=O)NCCOCCOCCOC3OC(CO)C(O)C(O)C3NC(C)=O)COCCC(=O)NCCOCCOCCOC3OC(CO)C(O)C(O)C3NC(C)=O)C2(C)C)C(C)(C)c2ccccc21 (some centres unmarked) [TC12A-Cy5]
- Kd (ASGPR receptor [1]): 0.696 nM

SMILES: CC[N+]1=C(/C=C/C=C/C=C2/c3ccccc3N(CCCCCC(=O)NCCNC(=O)CCC(=O)Nc3cc(C(=O)NCCOCCOC4OC(CO)C(O)C(O)C4NC(C)=O)cc(C(=O)Nc4cc(C(=O)NCCOCCOC5OC(CO)C(O)C(O)C5NC(C)=O)cc(C(=O)NCCOCCOC5OC(CO)C(O)C(O)C5NC(C)=O)c4)c3)C2(C)C)C(C)(C)c2ccccc21 (centres unmarked) [TC17A-Cy5]
- Kd (ASGPR receptor [1]): 1.26 nM

SMILES: CC[N+]1=C(/C=C/C=C/C=C2/c3ccccc3N(CCCCCC(=O)NCCNC(=O)CCNC(=O)[C@H](CNC(=O)C(C)(COCC(=O)NCCOCCOC3OC(CO)C(O)C(O)C3NC(C)=O)COCC(=O)NCCOCCOC3OC(CO)C(O)C(O)C3NC(C)=O)NC(=O)C(C)(COCC(=O)NCCOCCOC3OC(CO)C(O)C(O)C3NC(C)=O)COCC(=O)NCCOCCOC3OC(CO)C(O)C(O)C3NC(C)=O)C2(C)C)C(C)(C)c2ccccc21 (some centres unmarked) [TEC02A-Cy5]
- Kd (ASGPR receptor [1]): 0.198 nM
- Kd (ASGPR receptor [2]): 20.7 nM

SMILES: CC[N+]1=C(/C=C/C=C/C=C2/c3ccccc3N(CCCCCC(=O)NCCNC(=O)CCCCCCCCCCCNC(=O)[C@H](CNC(=O)C(C)(COCC(=O)NCCOCCOC3OC(CO)C(O)C(O)C3NC(C)=O)COCC(=O)NCCOCCOC3OC(CO)C(O)C(O)C3NC(C)=O)NC(=O)C(C)(CCCC(=O)NCCOCCOC3OC(CO)C(O)C(O)C3NC(C)=O)COCC(=O)NCCOCCOC3OC(CO)C(O)C(O)C3NC(C)=O)C2(C)C)C(C)(C)c2ccccc21 (some centres unmarked) [TEC06A-Cy5]
- Kd (ASGPR receptor [1]): 0.496 nM
